Results as given in publication PMC4684500, “Diversity, Antimicrobial Action and Structure-Activity Relationship of Buffalo Cathelicidins” (PLoS ONE, 2015).
Where no end group is shown, it is not given here.

Tests used:
[1] = tested on: Listeria monocytogenes ATCC-19111; format: cell-based; conditions: ATCC-19111, 24 h
Description: (§1) The buCATHL4 peptides were synthesized by G L Biochem (Shanghai, China). Purity and molecular mass of the peptides were provided by the vendors using HPLC and mass spectrometry, respectively. The purity of all peptides were >98%. Minimum inhibitory concentrations (MIC) of buCATHL4s against the pathogenic microorganisms were tested by broth micro-dilution technique. Briefly, bacteria were grown in Mueller Hinton broth (Sigma-Aldrich, MO, USA) at 37°C. The OD of early-log phase cultures were adjusted to 0.08–0.1 and further diluted (1:200) to keep inoculums concentration nearly 10^6 colony forming units (CFU)/ml. Diluted peptides (10 μl) were mixed with equi-volume solution A (0.02% acetic acid containing 0.4% BSA) and were serially diluted in the solution B (0.01% acetic acid containing 0.2% BSA). Bacterial inoculums (90 μl) were mixed with serially diluted peptides and incubated at 37°C for 24 h without shaking. […] All peptides were tested in triplicate. For time kill kinetics experiments, peptides (1×, 2× and 4× MIC) were added to bacterial suspension of Staphylococcus aureus, Salmonella enterica and Pseudomonas aeruginosa, as described in the MIC determination method. Aliquots of representative wells were diluted and plated on Muller Hinton agar plates at 0, 1, 4, 12 and 24 h intervals. Water with 0.01% acetic acid and ampicillin (100 mg/ml) were taken as […] controls, respectively. The results were represented as log CFU/ml.

[2] = tested on: Pseudomonas aeruginosa ATCC-27853; format: cell-based; conditions: ATCC-27853, 24 h
Description: as §1

[3] = tested on: Escherichia coli MTCC-0723; format: cell-based; conditions: MTCC-0723, 24 h
Description: as §1

[4] = tested on: Acinetobacter johnsonii NCDC-0072; format: cell-based; conditions: 24 h
Description: as §1

[5] = tested on: Salmonella typhimurium ATCC-14028; format: cell-based; conditions: ATCC-14028, 24 h
Description: as §1

[6] = tested on: Bacillus cereus NCDC-0240; format: cell-based; conditions: NCDC-0240, 24 h
Description: as §1

[7] = tested on: Pseudomonas aeruginosa NCDC-0105; format: cell-based; conditions: NCDC-0105, 24 h
Description: as §1

S. aureus [8] = experiment: Time kill kinetics; format: cell-based, Staphylococcus aureus
Description: as §1

P. aeruginosa biofilm = experiment: Biofilm assay (crystal violet); format: cell-based, Pseudomonas aeruginosa; conditions: peptide at 1× and 2× MIC, 24 h 37°C, crystal violet A570
Description: (§2) The efficacy of peptides against biofilms of S. aureus and P. aeruginosa was determined using previously described method. Overnight grown bacterial cultures were diluted (1:100) and 200 μl suspensions were mixed with each peptide (1× and 2× MIC) in a 96 well plate and incubated for 24 h at 37°C. Biofilms were fixed with paraformadehyde solution, cultures were decanted and 0.1% crystal violet solution was added to stain the film. The plate was rinsed thrice with water and air-dried. The stain was dissolved by 100 μl of acetic acid (30%) and absorbance was measured at 570 nm. The experiment was performed in triplicate, 30% acetic acid was taken as a blank.

S. typhimurium [9] = experiment: Scanning and transmission electron microscopy; format: cell-based, Salmonella typhimurium
Description: (§3) Early log phase cultures of S. aureus and S. enterica were subjected to different concentration of peptides and incubated at 37°C. The bacterial pellets after centrifugation (5000 g for 10 min) were washed with 0.1M cacodylate buffer (pH 7.2) and were fixed in 2.5% gluteraldehyde at 4°C for 2 h. For scanning electron microscopy, bacteria were dehydrated using gradient series of ethanol wash (30, 50, 70, 90 and absolute). The samples were air-dried overnight, gold coated (Eiko IB-3 ion coater), and viewed in a Zeiss EVO 18 Special Edition SEM. For transmission electron microscopy, fixed samples were adhered to hexagonal PELCO® Grids (Ted Pella, Inc. USA), washed once with Mili-Q water and stained with uranyl acetate (2%) buffer. Samples were viewed in a JEM 1011 (Jeol, Japan) microscope.

S. aureus biofilm = experiment: Biofilm assay (crystal violet); format: cell-based, Staphylococcus aureus; conditions: peptide at 1× and 2× MIC, 24 h 37°C, crystal violet A570
Description: as §2

[10] = tested on: Stahylococcus aureus ATCC-29213; format: cell-based, Staphylococcus aureus; conditions: ATCC-29213, 24 h
Description: as §1

[11] = tested on: Stahylococcus aureus NCDC-0111; format: cell-based, Staphylococcus aureus; conditions: 24 h
Description: as §1

PBMCs = experiment: In vitro cytokine response, qRT-PCR; format: cell-based, buffalo; conditions: peptide 500 nM, 1 h, qRT-PCR vs PBS control, p<0.05
Description: For measurement of in vitro cytokine response, PBMCs were isolated from blood and maintained in serum-free RPMI-1640 (Sigma Aldrich, MO, USA) medium. Cells were exposed to peptides (500 nM), muramyl-di-peptide (Invivogen, San Diego, CA) [MDP (10 μg/ml) as positive control] and PBS (negative control). Cells were incubated for 1 h and relative mRNA abundance of cytokines was quantified by qRT-PCR using RPS-18 gene as housekeeping control. Total RNA, extracted by TRIzol (Ambion, CA, USA) method was used for cDNA preparation (Superscript III cDNA synthesis kit; Invitrogen, CA, USA).qRT-PCR reactions were performed in a Light Cycler® 480 II machine (Roche Diagnostics, USA). Each reaction consisted of 2 μl cDNA template, 5 μl of 2× SYBR® Green PCR Master Mix (Thermo Scientific, PA, USA), 0.25 μl each of forward and reverse primers (10 pmol) and nuclease free water for a final volume of 10 μl. Each sample was run in duplicate.

S. aureus [12] = experiment: Scanning and transmission electron microscopy; format: cell-based, Staphylococcus aureus; conditions: lower concentrations (≤2× MIC)
Description: as §3

[13] = tested on: S. aureus, S. typhimurium and P. aeruginosa; experiment: Time kill kinetics, three pathogens; format: cell-based; conditions: peptide at 4× MIC
Description: as §1

S. aureus [14] = experiment: LIVE/DEAD BacLight membrane permeability assay; format: cell-based, Staphylococcus aureus; conditions: peptide 200μM, log phase culture, SYTO9/PI
Description: (§4) The damage to bacterial membrane following addition of peptide was assessed by BacLight kit (Life Technologies, CA, USA). Aliquots of S. aureus, S. enterica and P. aeruginosa cultures from exponential (shaking incubation for 2, 3, and 4 h, respectively) and stationary phases (overnight incubation) were harvested by centrifugation (5000 g for 10 min) and diluted in PBS. Peptides (200μM) were added to bacterial suspension and 50 μl aliquots were removed immediately or after 1 h incubation. Equi-volume mixtures of SYTO9/PI (3 μl/ml bacterial suspension) were added to these aliquots and fluorescent micrographs of stained bacteria were taken at 1000×magnification in a microscope (Olympus BX51 fitted with DP71 camera) with a fluorescence illuminator system.

S. typhimurium [15] = experiment: LIVE/DEAD BacLight membrane permeability assay; format: cell-based, Salmonella typhimurium; conditions: peptide 200μM, SYTO9/PI
Description: as §4

RIRFPWPWRWPWWRRVRG [buCATHL4C] gave an MIC [1] of 1.5 µM, an MIC [2] of 0.2 µM and an MIC [3] of 12.5 µM. The MIC [4] was 6 µM, the MIC [5] was 3 µM and the MIC [6] was 0.8 µM. For the same sequence, the MIC [7] was 6 µM, the “Growth inhibition of S. aureus in time kill kinetics” value (S. aureus [8]; peptide at 2× MIC, plating at 0, 1, 4, 12, 24 h) was “complete growth inhibition” and the “Time to complete elimination of S. aureus” value (S. aureus [8]; peptide at 4× MIC, time kill kinetics) was 4 h. The “Reduction in biofilm growth of P. aeruginosa” value (P. aeruginosa biofilm) was “substantial”, the “Formation of pore like structures over the membrane (SEM/TEM)” value (S. typhimurium [9]; Fig 5H and 5L, S. typhimurium, with extensive wrinkling of membrane) was “Formation of pore like structures” and the “Formation of negative curvature on membrane (SEM/TEM)” value (S. typhimurium [9]; more evident with S. typhimurium) was “Formation of negative curvature”. For the same sequence, the “Reduction in biofilm growth of S. aureus” value (S. aureus biofilm) was “substantial”, the MIC [10] was 0.2 µM and the MIC [11] was 0.4 µM. For the same sequence, the “TNF-α mRNA response” value (PBMCs) was “significantly higher”, the “Morphological change of S. aureus cells (SEM/TEM)” value (S. aureus [12]) was “swelling and blebing” and the “Killing rate compared with indolicidin and ampicillin” value [13] was “comparatively better killing rate”. The “Clumping (agglutination) of S. aureus after peptide addition” value (S. aureus [14]) was “immediate clumping”, the “Clumping (agglutination) of S. typhimurium after peptide addition” value (S. typhimurium [15]; log phase culture) was “immediate clumping” and the “Membrane permeability of latent (stationary phase) S. typhimurium” value (S. typhimurium [15]; stationary phase culture, proportion of cells affected comparatively less) was “affected membrane permeability”.
